Read-outs that look alike come from different tables or passages of the source.
Experiments:
Format in all cases: in vivo
[1] = test system: morningglory (Ipomoea spp.); assay: Test A pre-/postemergence plant response; details: Ipomoea, 240 h, read-out: Plant response rating, Morningglory; for pest or weed control at 125 g/ha: 125 g ai/ha; for pest or weed control at 500 g/ha: 500 g ai/ha, approx. ten days
In short: (§1)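 Greenhouse pots of loam/sand received directed preemergence soil sprays or postemergence sprays (plants 2–10 cm, 1–2 leaf stage), compounds formulated in non-phytotoxic solvent with surfactant. Injury was rated visually versus untreated controls after about ten days on a 0 (no effect) to 100 (complete control) scale.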

[2] = test system: pigweed (Amaranthus retroflexus); assay: Test A pre-/postemergence plant response; details: Amaranthus retroflexus, 240 h, read-out: Plant response rating, Pigweed; for pest or weed control at 125 g/ha: 125 g ai/ha; for pest or weed control at 500 g/ha: 500 g ai/ha, approx. ten days
In short: as §1

[3] = test system: giant foxtail (Setaria faberii); assay: Test B pre-/postemergence plant response; details: for pest or weed control at 31 g/ha: 31 g ai/ha; for pest or weed control at 125 g/ha: 125 g ai/ha
In short: (§2)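 Seeds sown in loam–sand blend were treated preemergence, and plants at 2–18 cm (1- to 4-leaf stage) in peat-based medium were treated postemergence; compounds were formulated in non-phytotoxic solvent with surfactant. After 13–15 days in greenhouse, response was visually rated against controls, 0 (no effect) to 100 (complete control).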

[4] = test system: goosegrass (Eleusine indica); assay: Test B pre-/postemergence plant response; details: for pest or weed control at 31 g/ha: 31 g ai/ha; for pest or weed control at 125 g/ha: 125 g ai/ha
In short: as §2

[5] = test system: woolly cupgrass (Eriochloa villosa); assay: Test B pre-/postemergence plant response; details: for pest or weed control at 31 g/ha: 31 g ai/ha; for pest or weed control at 125 g/ha: 125 g ai/ha
In short: as §2

[6] = test system: morningglory (Ipomoea coccinea); assay: Test B pre-/postemergence plant response
In short: as §2

[7] = post-emergence, Postemergence, 0 to 100 scale where 0 is no effect and 100 is complete control
[8] = post-emergence, Postemergence, 0 to 100 scale, 0 = no effect, 100 = complete control
[9] = pre-emergence, Preemergence, 0 to 100 scale, 0 = no effect, 100 = complete control
[10] = pre-emergence, Preemergence, visual injury, 0 to 100 scale (0 no effect, 100 complete control)
[11] = 62 g ai/ha, postemergence, 0 is no effect, 100 is complete control, 13 to 15 days
[12] = Preemergence, 250 g ai/ha, 0 to 100 scale

SMILES: COCCCn1c(-c2ccccc2)ncc(C(=O)C2=C(O)CCCC2=O)c1=O [Compound 81, 5-[(2-hydroxy-6-oxo-cyclohexen-1-yl)carbonyl]-3-(3-methoxypropyl)-2-phenyl-4(3H)-pyrimidinone]
- pest or weed control at 125 g/ha [1, 7]: 90%
- pest or weed control at 500 g/ha [1, 8]: 100%
- pest or weed control at 125 g/ha [1, 9]: 0%
- pest or weed control at 500 g/ha [1, 10]: 70%
- pest or weed control at 125 g/ha [2, 7]: 100%
- pest or weed control at 500 g/ha [2, 8]: 100%
- pest or weed control at 125 g/ha [2, 9]: 100%
- pest or weed control at 500 g/ha [2, 10]: 100%
- Foxtail, Giant plant response rating (0 to 100 scale) [3, 11]: 85
- Foxtail, Giant plant response rating [3, 12]: 98
- pest or weed control at 31 g/ha ([3]; Setaria faberi, post-emergence, postemergence, scale 0 to 100, 0 is no effect, 100 is complete control, read-out: Plant response rating, Foxtail, Giant): 75%
- pest or weed control at 125 g/ha ([3]; Setaria faberi, post-emergence, Postemergence, visual rating after 13 to 15 days, scale 0 (no effect) to 100 (complete control)): 95%
- pest or weed control at 250 g/ha ([3]; Setaria faberi, post-emergence, Postemergence, 250 g ai/ha, scale 0 to 100 (0 no effect, 100 complete control), read-out: Plant response rating, Foxtail, Giant): 98%
- pest or weed control at 31 g/ha ([3]; Setaria faberi, pre-emergence, Preemergence, scale 0 to 100 (0 no effect, 100 complete control), read-out: Plant response rating, Foxtail, Giant): 60%
- pest or weed control at 62 g/ha ([3]; Setaria faberi, pre-emergence, Preemergence, 62 g ai/ha, scale 0 to 100, 0 no effect, 100 complete control, read-out: Plant response rating, Foxtail, Giant): 75%
- pest or weed control at 125 g/ha ([3]; Setaria faberi, pre-emergence, Preemergence, scale 0 to 100, 0 no effect, 100 complete control, read-out: Plant response rating, Foxtail, Giant): 85%
- Goosegrass plant response rating (0 to 100 scale) [4, 11]: 70
- pest or weed control at 31 g/ha ([4]; Eleusine indica, post-emergence, postemergence, scale 0 to 100, 0 is no effect, 100 is complete control, read-out: Plant response rating, Goosegrass): 65%
- pest or weed control at 125 g/ha ([4]; Eleusine indica, post-emergence, Postemergence, visual rating after 13 to 15 days, scale 0 (no effect) to 100 (complete control)): 70%
- pest or weed control at 250 g/ha ([4]; Eleusine indica, post-emergence, Postemergence, 250 g ai/ha, scale 0 to 100 (0 no effect, 100 complete control), read-out: Plant response rating, Goosegrass): 80%
- pest or weed control at 31 g/ha ([4]; Eleusine indica, pre-emergence, Preemergence, scale 0 to 100 (0 no effect, 100 complete control), read-out: Plant response rating, Goosegrass): 98%
- pest or weed control at 62 g/ha ([4]; Eleusine indica, pre-emergence, Preemergence, 62 g ai/ha, scale 0 to 100, 0 no effect, 100 complete control, read-out: Plant response rating, Goosegrass): 98%
- pest or weed control at 125 g/ha ([4]; Eleusine indica, pre-emergence, Preemergence, scale 0 to 100, 0 no effect, 100 complete control, read-out: Plant response rating, Goosegrass): 100%
- Goosegrass plant response rating [4, 12]: 100
- Cupgrass, Woolly plant response rating (0 to 100 scale) [5, 11]: 75
- pest or weed control at 31 g/ha ([5]; Eriochloa villosa, post-emergence, postemergence, scale 0 to 100, 0 is no effect, 100 is complete control, read-out: Plant response rating, Cupgrass, Woolly): 65%
- pest or weed control at 125 g/ha ([5]; Eriochloa villosa, post-emergence, Postemergence, visual rating after 13 to 15 days, scale 0 (no effect) to 100 (complete control)): 90%
- pest or weed control at 250 g/ha ([5]; Eriochloa villosa, post-emergence, Postemergence, 250 g ai/ha, scale 0 to 100 (0 no effect, 100 complete control), read-out: Plant response rating, Cupgrass, Woolly): 90%
- pest or weed control at 31 g/ha ([5]; Eriochloa villosa, pre-emergence, Preemergence, scale 0 to 100 (0 no effect, 100 complete control), read-out: Plant response rating, Cupgrass, Woolly): 40%
- pest or weed control at 62 g/ha ([5]; Eriochloa villosa, pre-emergence, Preemergence, 62 g ai/ha, scale 0 to 100, 0 no effect, 100 complete control, read-out: Plant response rating, Cupgrass, Woolly): 55%
- pest or weed control at 125 g/ha ([5]; Eriochloa villosa, pre-emergence, Preemergence, scale 0 to 100, 0 no effect, 100 complete control, read-out: Plant response rating, Cupgrass, Woolly): 75%
- Cupgrass, Woolly plant response rating [5, 12]: 85
- Morningglory plant response rating (0 to 100 scale) [6, 11]: 90
- pest or weed control at 31 g/ha ([6]; Ipomoea, post-emergence, 31 g ai/ha, postemergence, scale 0 to 100, 0 is no effect, 100 is complete control, read-out: Plant response rating, Morningglory): 75%
- pest or weed control at 125 g/ha ([6]; Ipomoea, post-emergence, Postemergence, 125 g ai/ha, visual rating after 13 to 15 days, scale 0 (no effect) to 100 (complete control)): 100%

Reference: patent publication US8952024B2, “Herbicidal pyrimidone derivatives” (E I du Pont de Nemours and Company, priority 2009, dated 2015)
